Reference: patent US8790719B2, “Phytocannabinoids in the treatment of cancer” (GW Pharma Limited, priority 2010, dated 2014)
Where two headings read alike, the source gives them in different places.

Tests used:
[1] = tested on: human glioma xenograft tumours; test: Human glioma xenograft tumour volume; assay type: in vivo; design: unit not given here
Protocol: The phytocannabinoids were also tested with the TMZ as is detailed in Table 13.2 below.

[2] = tested on: recurrent glioblastoma multiforme; conditions: nine patients, THC intra-tumourally; 95% confidence interval: 15-33; cited from earlier work
U87 glioma cells = test: Viability of U87 glioma cells (MTT assay), THC, CBD, TMZ alone and combined; assay type: cell-based, human
[3] = tested on: MDA-MB-231 breast cancer cell line; test: Cell viability of breast cancer cells (Alamar blue assay); assay type: cell-based; conditions: Homo sapiens, 72 hours
Protocol: Cells were seeded in presence of FBS in 6 wells multiwell and treated with increased concentrations of compounds for 72 hours. Cell viability was assessed by Alamar blue staining.
Isolated phytocannabinoids were tested on the MDA-MB-231 breast cancer cell line in order to determine whether phytocannabinoids were effective in other types of cancer other than prostate cancer. The different isolated phytocannabinoids chosen for this experiment were: CBGA, CBDA, CBDV, CBD, THCV and THC.

[4] = tested on: Aberrant crypt focus (ACF), polyps and tumours; test: Colon carcinogenesis in the mouse induced by azoxymethane; assay type: in vivo; conditions: i.p. three times per week for three months; FIG. 5 c), FIG. 6 c)
Excerpt: Aberrant crypt focus (ACF), polyps and tumours were induced in the mouse by the carcinogenic substance azoxymethane. The phytocannabinoids were given (i.p.) to the mice three times per week for a period of three months. The COX-2 inhibitor celecoxib was used as a positive control.

Glioma cells = test: Human glioma cell vitality (MTT assay); assay type: cell-based; conditions: read-out: IC50 on glioma cell vitality
Protocol: Cells were seeded in presence of FBS in 6 wells multiwell with a density of 8×10^4 cells/well. Glioma cells were treated with increased concentrations of compounds and cell viability was assessed by MTT staining.
CBD BDS and isolated CBD, CBG and CBDV were tested.

GPR55 = target: T1, GPR55 (Homo sapiens, UniProt Q9Y2T6); test: ERK Alphascreen assay using GPR55-HEK cells; assay type: cell-based
T1 construct: expressed in transfected cells; host or cells: HEK cells (GPR55-HEK)
T1 sequence (Q9Y2T6 whole entry, species assumed): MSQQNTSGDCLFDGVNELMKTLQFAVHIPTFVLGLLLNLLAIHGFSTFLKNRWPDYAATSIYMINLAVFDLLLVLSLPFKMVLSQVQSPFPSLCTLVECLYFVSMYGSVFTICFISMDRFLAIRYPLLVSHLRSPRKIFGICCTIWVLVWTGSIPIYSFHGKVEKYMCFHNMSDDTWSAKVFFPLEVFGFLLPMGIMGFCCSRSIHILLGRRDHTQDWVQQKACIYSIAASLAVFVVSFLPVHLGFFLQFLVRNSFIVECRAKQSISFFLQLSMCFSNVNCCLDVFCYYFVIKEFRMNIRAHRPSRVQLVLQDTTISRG
Excerpt: An ERK Alphascreen assay was undertaken using GPR55-HEK cells.

LNCaP = test: Cell vitality (MTT assay), LNCaP; assay type: cell-based; conditions: Homo sapiens, read-out: IC50 on cell vitality
Protocol: (§1) Cells were seeded in presence of FBS in 6 wells multiwell with a density of 8×10^4 cells/well (DU-145) or 1×10^5 cells/well (LNCaP). After 7 hours, cells were starved of dihydrotestosterone (DHT) for 15 hours and treated with increased concentrations of compounds for 24 or 48 hours (absence of serum was maintained during the treatments). Cell viability was assessed by MTT staining.
(§2) Phytocannabinoid BDS and their respective isolated phytocannabinoids were tested in both the hormone-insensitive (DU-145) prostate cancer cells and hormone-sensitive (LNCaP) prostate cancer cells. Three different phytocannabinoids were chosen for this experiment: CBG BDS and isolated compound, CBC BDS and isolated compound and CBD BDS and isolated compound.
(§3) The experiment was repeated in the hormone-insensitive (DU-145) prostate cancer cells and hormone-sensitive (LNCaP) prostate cancer cells that had not been starved of DHT. Here just the CBG BDS and isolated CBG are illustrated in Table 7.2 below.

DU-145 = test: Cell vitality (MTT assay), DU-145; assay type: cell-based; conditions: Homo sapiens, read-out: IC50 on cell vitality
Protocol: as §1, §2, §3

[5] = tested on: subcutaneously implanted U87 human glioma cells; conditions: s.c., 0.5 mg/mouse; cited from earlier work

Compound | Tumour volume (increase from day 1) ([1]; dose level 3.7 mg/kg (each)) | Tumour volume (increase from day 1) ([1]; dose level 7.5 mg/kg (each)) | Tumour volume (increase from day 1) ([1]; dose level 15.0 mg/kg) | Median survival from the beginning of cannabinoid administration [2] [weeks] | Cell Viability (%) (U87 glioma cells; cannabinoid 1 μM (each), Table 12.2) | Cell Viability (%) (U87 glioma cells; dose level 0.7 μM (each)) | Cell Viability (%) (U87 glioma cells; dose level 0.9 μM (each)) | Cell Viability (%) (U87 glioma cells; dose level 1.2 μM (each)) | IC50 [3] [µM] | numbers of tumours per animal [4] | IC50 (Glioma cells) [µM] | Effect at GPR55 (GPR55) | IC50 (LNCaP; 24 h) [µM] | IC50 (LNCaP; 48 h) [µM] | IC50 (DU-145; DU-145, 24 h) [µM] | IC50 (DU-145; DU-145, 48 h) [µM] | growth of subcutaneously implanted U87 human glioma cells [5]
CCCCCc1cc(O)c2c(c1)OC(C)(C)[C@@H]1CCC(C)=C[C@@H]21 [THC, Tetrahydrocannabinol] | 8.7 | 8.5 | 5.8 | 24 | 115 | 100 | 92 | 80 | > 10 | – | – | – | – | – | – | – | –
C=C(C)[C@@H]1CCC(C)=C[C@H]1c1c(O)cc(CCCCC)cc1O [CBD, Cannabidiol] | 9.1 | 8.9 | 7.6 | – | – | – | – | – | 5 | significantly reduced the numbers of tumours per animal | 8.92 | Antagonist | 5.3 | 5.6 | 5.5 | 4.9 | significantly inhibited the growth
